Data published in patent US20100021398A1, “COMPOSITIONS AND METHODS FOR LIGHTENING SKIN AND PROTECTING SKIN FROM ULTRAVIOLET RADIATION WITH GLUTATHIONE” (priority 2008, published 2010).

Columns and labels:
[1] = unmodified glutathione, cited from earlier work
Mitochondrial SOD 2 = test: up-regulation of anti-oxidant enzyme SOD by glutathione; assay type: cell-based; conditions: glutathione up-regulating anti-oxidant enzymes

In the case of `N[C@@H](CCC(=O)N[C@@H](CS)C(=O)NCC(=O)O)C(=O)O` [glutathione], the “half-life in the blood stream” value ([1]; blood stream) is listed as “about a minute and a half”, the “half-life in the blood” value ([1]; blood) is listed as “around 120 seconds” and the SOD increase (Mitochondrial SOD 2) is listed as 182%.
